Data as given in publication PMC12241370, “Anti-biofilm peptides can rescue fluconazole and amphotericin B efficacies against Candida albicans” (Scientific Reports, 2025).

Legend:
[1] = system: C. albicans laboratory strain and clinical isolates; test: Resazurin reduction viability assay of planktonic cells; assay type: cell-based, Candida albicans; settings: for strains whose viability could not be reduced to zero: 1x ED: 2 µg/mL amphotericin B, 8 µg/mL fluconazole
Experimental: KG, Nümbrecht, Germany) at 37 °C with shaking at 900 rpm on an Eppendorf shaker. The quantification of viable yeast cells was carried out using a Resazurin-Reduction-Assay[86]. Accordingly, the cells were exposed to 20 µL of a 0.15 mg/mL resazurin solution for 2 h and subsequently the amount of converted resorufin was determined with fluorescence measurements at an excitation wavelength of 535 and an emission of 595 nm with a Tecan infinite F200 microplate reader (Tecan Group Ltd., Männedorf, Switzerland).

[2] = system: C. albicans clinical isolate 23; test: Resazurin viability assay of clinical isolate 23; assay type: cell-based, Candida albicans; settings: antifungal alone at 1x ED
Experimental: The viability of C. albicans cells was assessed following the guidelines of the Clinical and Laboratory Standards Institute (M27-A3)[86]. Accordingly, 2.5 × 10^4 yeast cells/mL were cultured in 200 µL of RPMI-1640 medium in the presence of peptide (Pom-1 to Pom-1 F) and amphotericin B or fluconazole in different concentrations (0.1x ED/MBIC and 0.5x ED/MBIC) in flat-bottomed polystyrene microtiter plates with 96 wells (Sarstedt AG and Co. KG, Nümbrecht, Germany) at 37 °C with shaking at 900 rpm on an Eppendorf shaker. The quantification of viable yeast cells was carried out using a Resazurin-Reduction-Assay[86]. Accordingly, the cells were exposed to 20 µL of a 0.15 mg/mL resazurin solution for 2 h and subsequently the amount of converted resorufin was determined with fluorescence measurements at an excitation wavelength of 535 and an emission of 595 nm with a Tecan infinite F200 microplate reader (Tecan Group Ltd., Männedorf, Switzerland).
Figure S4. Inherent resilience to aggregation by isolate 23 and marginal reduction of viability by further raised concentrations of antifungal and peptide combinations. (A) Microscopic analysis using a Leica DMi8 coded (Leica Microsystems CMS GmbH, Wetzlar, Germany) microscope of C. albicans laboratory strain and clinical isolate 23 with and without treatment with Pom-1. The pictures were taken after an incubation time of 2 h. […]

[3] = system: C. albicans laboratory strain and clinical isolates; test: Biofilm formation, crystal violet assay; assay type: cell-based, Candida albicans
Experimental: In order to evaluate the antifungal effects of the Pom-1 derivatives combined with amphotericin B or fluconazole on biofilm formation, a crystal violet assay was performed[84],[85]. For this, 2.5 × 10^4 yeast cells/mL were incubated in 200 µL of RPMI-1640 medium supplemented with amphotericin B, fluconazole and Pom-1 to Pom-1 F in flat-bottomed polystyrene microtiter plates with 96 wells for 24 h at 37 °C without agitation. Subsequently, the planktonic phase was removed, the remaining cells attached to the wells were washed twice with 200 µL of demineralized water and exposed to 200 µL of 0.1% (w/v) crystal violet solution for 15 min. Afterwards, the solution was removed and the cells were washed again twice with 200 µL of demineralized water and the plates were left to dry for 24 h at 25 °C. To dissolve the stain, 200 µL of 30% acetic acid was added and transferred to a new plate after 15 min. […] By comparing the resulting data against the untreated controls, the efficacy of the agents could be assessed.

A549 cells = test: Resazurin viability assay for cell culture (A549); assay type: cell-based, human; settings: detergent cell lysis control
Experimental: (§1) Adenocarcinomic human alveolar basal epithelial cells (A549) (purchased from the ATCC, Manassas, VA, USA, CRM-CCL-185)[67] and human dermal fibroblasts (HDFs) (purchased from tebu-bio GmbH, Offenbach, Germany) were used[68] for the experiments. Cultivation was conducted in DMEM with FBS (10% (w/v), 15% (w/v)), MEM NEAAs (1% (w/v)), and penicillin–streptomycin (100 U/mL, 1% (w/v)) at 37 °C in an incubator containing 5% CO2. To detect the viability of human cells, a resazurin reduction assay was performed. For this, 2 × 10^4 cells per well of a 96-well plate were incubated in 200 µL DMEM with additives at 37 °C and 5% CO2. After removing the medium, 100 µL of the medium and 100 µL of a peptide/antifungal solution (2.5 µg/mL, 25 µg/mL) were added. After incubation for 24 h at 37 °C and 5% CO2, 20 µL of a resazurin solution (0.15 mg/mL) were added into each well, and the cells were incubated again for 24 h at 37 °C and 5% CO2. Fluorescence measurement (excitation wavelength—535 nm, emission wavelength—595 nm) of the converted resorufin was then performed using a Tecan Infinite F200 microplate reader (Tecan Group Ltd., Männedorf, Switzerland).

[4] = system: C. albicans reference strain; test: Permeabilization assay with fluorescent dyes of increasing size; assay type: cell-based, Candida albicans; settings: FITC, propidium iodide, ATTO 488 alkyne, rhodamine phalloidin; Pom-1 or Cm-p5 at 2.5 µg/mL and 10 µg/mL, 2 h, 37 °C; Triton X-100 0.2% (w/v) solution, last 10 min; fluorescence; triplicate
Experimental: For this, 2.5 × 10^4 cells/mL of the C. albicans reference strain were incubated in 200 µL of RPMI-1640 medium supplemented with either Pom-1 or Cm-p5 at final concentrations of 2.5 µg/mL and 10 µg/mL and incubated for 2 h at 37 °C. For the positive control, 100 µL of a 0.2% (w/v) solution of Triton X-100 was added 10 min prior to the end of the 2 h incubation time and for the negative control, no agent was added (untreated). After incubation, the tubes were centrifuged at 11,000 ×g and the supernatant was discarded. Afterwards, the cells were washed with once with PBS and after addition of 5 µL dye and 195 µL PBS (final concentration of dye: 5 µL/mL) the cell suspension was centrifuged at 11,000 ×g for 2 min. […] Subsequently the yeast cells were washed 3x with PBS, resuspended in 200 µL of PBS and pipetted into flat-bottomed polystyrene microtiter plates with 96 wells (Sarstedt AG and Co. KG, Nümbrecht, Germany) and fluorescence measurements were conducted at an excitation wavelength of 498 nm (FITC), 535 nm (propidium iodide), 500 nm (Atto488), and 540 nm (rhodamine phalloidin) and an emission of 517 nm (FITC), 617 nm (propidium iodide), 520 nm (Atto488), 565 nm (rhodamine phalloidin) with a Tecan infinite F200 microplate reader (Tecan Group Ltd., Männedorf, Switzerland). […]

[5] = system: human dermal fibroblasts (HDF); test: Resazurin viability assay for cell culture (HDF); assay type: cell-based; settings: detergent cell lysis control
Experimental: as §1

Compound	strains whose viability could not be reduced to zero [1]	isolates with viability reduction (death count) ([1]; fluconazole only, 0.1x ED)	ratio of completely killed C. albicans isolates ([1]; fluconazole only, 1x ED (8 µg/mL), 28 strains) [%]	effect on isolate 23 [2]	strains with complete biofilm inhibition (death count) ([3]; amphotericin B only, 0.1x ED)	strains with complete biofilm inhibition (death count) ([3]; antifungal only, 0.5x ED)	strains with complete biofilm inhibition ([3]; antifungal only, 0.5x ED, 21 strains) [%]	strains with complete inhibition of biofilms ([3]; antifungal only, 1x ED (2 µg/mL), 21 strains) [%]	strains with complete inhibition of biofilms (death count) ([3]; antifungal only, 1x ED (2 µg/mL), crystal violet, 24 h, 37 °C, triplicate)	strains killed completely ([1]; amphotericin B only, 0.5x ED, planktonic cells, 28 strains) [%]	isolates against which fully active (zero viability) ([1]; amphotericin B only, 1x ED (2 µg/mL), planktonic cells, 28 strains) [%]	isolates against which fully active (death count) ([1]; amphotericin B only, 1x ED (2 µg/mL), planktonic cells, resazurin, triplicate)	cell viability of A549 cells (A549 cells)	permeabilization of C. albicans cells for fluorescent dyes [4]	cell viability of HDF cells [5]
OC(Cn1cncn1)(Cn1cncn1)c1ccc(F)cc1F [fluconazole]	12 of 28 strains	3 isolates of 28	57	unaffected											
C[C@@H]1[C@H](O)[C@@H](C)/C=C/C=C/C=C/C=C/C=C/C=C/C=C/[C@H](O[C@@H]2O[C@H](C)[C@@H](O)[C@H](N)[C@@H]2O)C[C@@H]2O[C@](O)(C[C@@H](O)C[C@@H](O)[C@H](O)CC[C@@H](O)C[C@@H](O)CC(=O)O[C@H]1C)C[C@H](O)[C@H]2C(=O)O [amphotericin B]	21 of 28 strains			unaffected	totally failed	2 of 21	9.5	52	11 of 21	7	25	7 of 28			
Triton X-100													zero	permeabilized Candida cells for all dyes	zero
